Experimental findings from patent publication US20240090503A1, “FUNGICIDAL OXADIAZOLES AND THEIR MIXTURES” (FMC CORPORATION, priority 2020, published 2024) are described below.

What all share (type): in vivo
The subject of test [1] is Phakopsora pachyrhizi (the causal agent of Asian soybean rust). In words: Test E: compounds alone and mixtures sprayed on soybean seedlings, Asian soybean rust, observed and Colby-expected disease control. More on the design: key to Test E Obsd: 100 = 100% disease control, 0 = no disease control. Particulars: for pest or weed control at 161.74 ppm: 161.740 ppm. From the text: The general protocol for preparing test compositions for TEST E was as follows: Compound 316, Compound 376, Compound 225, Compound 229, Compound 257, Compound 394, Compound 506, Compound 507, Compound 508, Compound 509, Compound 511, Compound 512, methyl N-[[5-[1-[2,6-difluoro-4-(1-methylethyl)phenyl]-1H-pyrazol-3-yl]-2-methylphenyl]methyl]carbamate (b54.11a), methyl N-[[5-[l-(4-cyclopropyl-2,6-difluorophenyl)-1H-pyrazol-3-yl]-2-methylphenyl]methyl]carbamate (b54.11d), ethyl 1-[[4-[[(1Z)-2-ethoxy-3,3,3-trifluoro-1-propen-1-yl]oxy]phenyl]methyl]-1H-pyrazole-4-carboxylate (b54.12a), ethyl 1-[[4-[[2-(trifluoromethyl)-1,3-dioxolan-2-yl]methoxy]phenyl]methyl]-1H-pyrazole-4-carboxylate (b54.13a), azoxystrobin, benzovindiflupyr, bixafen, chlorothalonil, cyproconazole, epoxiconazole, fenpropidin, fenpropimorph, fluindapyr, flutriafol, fluxapyroxad, inpyrfluxam, metominostrobin, picoxystrobin, prothioconazole, pydiflumetofen, pyraclostrobin, tebuconazole and trifloxystrobin were obtained as unformulated, technical-grade materials. Copper hydroxide and mancozeb was obtained as a formulated product marketed under the trademarks KOCIDE 3000 and MANZATE, respectively. Unformulated materials were first dissolved in acetone and then suspended at the desired concentration (in ppm) in acetone and purified water (50/50 mixture by volume) containing 250 ppm of the surfactant Trem® 014 (polyhydric alcohol esters). Formulated materials were dispersed in sufficient water to give the desired concentration, and neither organic solvent nor surfactant was added to the suspension. The resulting test mixtures were then used in TEST E. The tests were run on four individual plants and the results reported as the mean average of the four plants.
The presence of a synergistic effect between two active ingredients can be established with the aid of the Colby equation (see Colby, S. R. “Calculating Synergistic and Antagonistic Responses of Herbicide Combinations”, Weeds, (1967), 15, 20-22):
Using the method of Colby, the presence of a synergistic interaction between two active ingredients is established by first calculating the predicted activity, p, of the mixture based on activities of the two components applied alone. If p is lower than the experimentally established effect, synergism has occurred. In the equation above, A is the fungicidal activity in percentage control of one component applied alone at rate x. The B term is the fungicidal activity in percentage control of the second component applied at rate y. The equation estimates p, the expected fungicidal activity of the mixture of A at rate x with B at rate y if their effects are strictly additive and no interaction has occurred.
The test mixture was sprayed to the point of run-off on soybean seedlings. The following day the seedlings were inoculated with a spore suspension of Phakopsora pachyrhizi (the causal agent of Asian soybean rust) and incubated in a saturated atmosphere at 22° C. for 24 h and then moved to a growth chamber at 22° C. for 8 days, after which time visual disease ratings were made.
Results for Test E are given below in Tables A-1 through K-2. Each table corresponds to a set of evaluations performed together at the same time. In each table, a rating of 100 indicates 100% disease control and a rating of 0 indicates no disease control (relative to the controls). Columns labeled “Obsd” indicate the average of results observed from test run on four individual plants. Columns labeled “Exp” indicate the expected value for each treatment mixture using the Colby equation, as described above.

For test [2] the test system is unchanged. In words: Test A: preventive spray on soybean seedlings, Asian soybean rust, visual disease rating. Particulars: soybean seedlings, 100 = 100% disease control, 0 = no control. A digest of the protocol:
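Compound in acetone/water (50/50) with 250 ppm PEG400 sprayed to run-off on soybean seedlings; inoculated next day with Phakopsora pachyrhizi spores. Held 24 h at 22° C in saturated atmosphere, then 8 days in a 22° C growth chamber before visual rating as % disease control relative to controls.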

Test [3] relates to Puccinia recondita f. sp. tritici (the causal agent of wheat leaf rust). In words: Test C: preventive spray on wheat seedlings, wheat leaf rust, visual disease rating. Particulars: wheat seedlings, 100 = 100% disease control, 0 = no control. A digest of the protocol:
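Wheat seedlings sprayed to run-off with compound in acetone/water (50/50) with 250 ppm PEG400, then inoculated with spores the following day. After 24 h saturated humidity at 20° C. and 6 days in growth chamber at 20° C., disease rated visually as % control relative to untreated controls.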

In test [4] the test system is Zymoseptoria tritici (the causal agent of wheat leaf blotch). In words: Test B: preventive spray on wheat seedlings, wheat leaf blotch, visual disease rating. Particulars: 250 ppm test suspension, wheat seedlings, 100 = 100% disease control. In outline: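 This is a preventive test: spray application preceded Zymoseptoria tritici spore inoculation by one day. Test suspensions were in acetone/water with 250 ppm PEG400 surfactant, at the listed ppm rate. After 48 h saturated humidity at 24° C and 17 days at 20° C, visual ratings scored control from 0 to 100%.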

Where [5] appears, read: Table B-1, component (b) alone: bixafen 11.327, fluxapyroxad 2.757, fluindapyr 8.820 ppm.
Where [6] appears, read: Table B-1, component (b) alone: bixafen 19.525, fluxapyroxad 4.748, fluindapyr 15.230 ppm.
Setting [7] is: Table B-2, component (b) alone: bixafen 11.327, fluxapyroxad 2.757, fluindapyr 8.820 ppm.
Setting [8] is: Table B-2, component (b) alone: bixafen 19.525, fluxapyroxad 4.748, fluindapyr 15.230 ppm.
The mark [9] stands for this setting: Phakopsora pachyrhizi, applied alone, read-out: Test E Obsd.
[10] abbreviates: Phakopsora pachyrhizi, fenpropidin alone, read-out: Test E Obsd.

Where two headings read alike, the source gives them in different places. Marks after values point to notes of the source that are not given here.

In the case of `Cn1cc(C(=O)Nc2cccc3c2[C@@H]2CC[C@H]3C2=C(Cl)Cl)c(C(F)F)n1` (racemic) [benzovindiflupyr, reference compound], the “Test E Obsd (disease control rating)” value is 67% in test [1] (Table F-1, component (b) alone: benzovindiflupyr 0.606, prothioconazole 10.165, chlorothalonil 138.129 ppm); 67% in test [1] (Table F-1, component (b) alone: benzovindiflupyr 0.980, prothioconazole 16.339, chlorothalonil 222.081 ppm); 67% in test [1] (Table F-2, component (b) alone: benzovindiflupyr 0.606, prothioconazole 10.165, chlorothalonil 138.129 ppm); 67% in test [1] (Table F-2, component (b) alone: benzovindiflupyr 0.980, prothioconazole 16.339, chlorothalonil 222.081 ppm). Also, the “Test E Obsd” value in test [1] (applied alone, 0.606 ppm) amounted to 51; in test [1] (applied alone, 0.980 ppm), 68.

Turning to `CO/C=C(/C(=O)OC)c1ccccc1Oc1cc(Oc2ccccc2C#N)ncn1` [azoxystrobin, reference compound], the “Test E Obsd (disease control rating)” value in test [1] (Table D-1, component (b) alone: cyproconazole 37.333, azoxystrobin 95.873, trifloxystrobin 20.511 ppm) is reported as 70%; in test [1] (Table D-1, component (b) alone: cyproconazole 64.883, azoxystrobin 169.226, trifloxystrobin 35.310 ppm), 88%; in test [1] (Table D-2, component (b) alone: cyproconazole 37.333, azoxystrobin 95.873, trifloxystrobin 20.511 ppm), 70%; in test [1] (Table D-2, component (b) alone: cyproconazole 64.883, azoxystrobin 169.226, trifloxystrobin 35.310 ppm), 88%.

Take `Cn1cc(C(=O)Nc2ccc(F)cc2-c2ccc(Cl)c(Cl)c2)c(C(F)F)n1` [bixafen, reference compound]: the “Test E Obsd (disease control rating)” value in test [1] (setting [5]) came to 54%; in test [1] (setting [6]), 55%; in test [1] (setting [7]), 54%; in test [1] (setting [8]), 55%.

Take `N#Cc1c(Cl)c(Cl)c(Cl)c(C#N)c1Cl` [chlorothalonil, reference compound]: the pest or weed control at 138.129 ppm in test [1] (Phakopsora pachyrhizi, applied alone, 138.129 ppm, read-out: Test E Obsd) stood at 76%. The pest or weed control at 222.081 ppm in test [1] (Phakopsora pachyrhizi, applied alone, 222.081 ppm, read-out: Test E Obsd) came out at 88%.

Regarding `OC(c1ccc(-c2noc(C(F)(F)F)n2)cc1)c1cccc(F)c1` (stereo not drawn) [compound 498], in test [2] (10 ppm test suspension), the “Test A disease control rating” value was determined as 100%. The “Test C disease control rating” value in test [3] (10 ppm test suspension) came to 0%. In addition, in test [4], the “Test B disease control rating” value was 43* %.

`OC(c1ccc(-c2noc(C(F)(F)F)n2)cc1)c1cccc(Cl)c1` (stereo not drawn) [compound 499]: in test [2] (250 ppm test suspension), the “Test A disease control rating” value was found to be 100%. For the same compound, the “Test C disease control rating” value in test [3] (250 ppm test suspension) is 100%. Besides, the “Test B disease control rating” value in test [4] was 48* %.

Turning to `OC(c1ccc(F)cc1)c1ccc(-c2noc(C(F)(F)F)n2)cc1` (stereo not drawn) [compound 500], in test [2] (250 ppm test suspension), the “Test A disease control rating” value turned out to be 100%. In addition, in test [3] (250 ppm test suspension), the “Test C disease control rating” value is on record as 100%. In test [4], the “Test B disease control rating” value is listed as 5* %.

In the case of `CN(C)C(=O)C1=NOC(COc2cccc(-c3noc(C(F)(F)F)n3)c2)C1` (stereo not drawn) [compound 502], the pest or weed control at 250 ppm is 100% in test [2] (Phakopsora pachyrhizi, 216 h, 250 ppm test suspension); 100% in test [3] (Puccinia recondita, 168 h, 250 ppm test suspension); 62% in test [4] (Zymoseptoria tritici, 456 h).

Turning to `CC(Cc1ccc(C(C)(C)C)cc1)CN1CCCCC1` (stereo not drawn) [fenpropidin, reference compound], the pest or weed control at 78.393 ppm in test [1] (setting [9]) and in test [1] (setting [10]) was 0% each time. Moreover, the pest or weed control at 161.74 ppm in test [1] (setting [9]) and in test [1] (setting [10]) was 52% each time.

With `CC1CC(C)(C)c2c(F)ccc(NC(=O)c3cn(C)nc3C(F)F)c21` (stereo not drawn) [fluindapyr, reference compound], the “Test E Obsd (disease control rating)” value in test [1] (setting [5]) was found to be 61%; in test [1] (setting [6]), 79%; in test [1] (setting [7]), 61%; in test [1] (setting [8]) it was 79%.

For the compound `Cn1cc(C(=O)Nc2ccccc2-c2cc(F)c(F)c(F)c2)c(C(F)F)n1` [fluxapyroxad, reference compound], the “Test E Obsd (disease control rating)” value in test [1] (setting [5]) is listed as 19%; in test [1] (setting [6]), 52%; in test [1] (setting [7]) it was 19%; in test [1] (setting [8]), 52%.

Turning to `CO/C=C(/C(=O)OC)c1ccccc1COc1cccc(C(F)(F)F)n1` [picoxystrobin, reference compound], the “Test E Obsd (disease control rating)” value is 73% in test [1] (Table A-1, component (b) alone: b54.13a 1.422, b54.12a 0.303, b54.11a 0.403, picoxystrobin 20.596 ppm); 75% in test [1] (Table A-1, component (b) alone: b54.13a 2.276, b54.12a 0.489, b54.11a 0.652, picoxystrobin 38.865 ppm); 73% in test [1] (Table A-2, component (b) alone: b54.13a 1.422, b54.12a 0.303, b54.11a 0.403, b54.11d 0.346, picoxystrobin 20.596 ppm); 75% in test [1] (Table A-2, component (b) alone: b54.13a 2.276, b54.12a 0.489, b54.11a 0.652, b54.11d 0.764, picoxystrobin 33.865 ppm). The “Test E Obsd” value is recorded as 28 in test [1] (applied alone, 20.596 ppm); 43 in test [1] (applied alone, 33.865 ppm); 43 in test [1] (applied alone, 33.875 ppm); 28 in test [1] (picoxystrobin alone, 20.596 ppm); 43 in test [1] (picoxystrobin alone, 33.865 ppm).

Turning to `OC(Cc1ccccc1Cl)(Cn1nc[nH]c1=S)C1(Cl)CC1` (stereo not drawn) [prothioconazole, reference compound], the pest or weed control at 10.165 ppm in test [1] (Phakopsora pachyrhizi, applied alone, 10.165 ppm, read-out: Test E Obsd) amounted to 34%. Besides, the pest or weed control at 16.339 ppm in test [1] (Phakopsora pachyrhizi, applied alone, 16.339 ppm, read-out: Test E Obsd) worked out at 56%.
